Assay results taken from patent US11230526B1, “Cylcoalkenyl derivatives useful as agonists of the GPR120 and/or GPR40 receptors” (Janssen Pharmaceutica NV, priority 2018, dated 2022).
Values joined by “and” are separate entries in the source; they are usually repeats but may differ in a detail not shown here. Equal entries are not always repeated.

Key:
Assay type in all cases: cell-based
[1] = target: T1, human GPR40 (Homo sapiens, UniProt O14842); test: GPR40 calcium flux assay, human GPR40; conditions: HEK293 cells stably expressing GPR40; table does not say human or rat
T1 construct: expressed in transfected cells
T1 sequence (O14842 whole entry): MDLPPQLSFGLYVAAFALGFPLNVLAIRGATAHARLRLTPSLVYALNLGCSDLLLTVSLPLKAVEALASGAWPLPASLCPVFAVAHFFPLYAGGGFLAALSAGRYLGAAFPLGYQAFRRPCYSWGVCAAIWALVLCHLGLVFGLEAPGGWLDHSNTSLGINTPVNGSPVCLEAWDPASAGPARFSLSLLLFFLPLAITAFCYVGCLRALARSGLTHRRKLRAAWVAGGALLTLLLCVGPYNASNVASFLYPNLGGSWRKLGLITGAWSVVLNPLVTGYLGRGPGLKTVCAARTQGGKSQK
Method in brief: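 Cells preincubated 1 h at 37° C. in HBSS, 20 mM HEPES, 0.1% BSA, then Fluo 8 calcium dye 30 min at 37° C. and 15 min at room temperature.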

[2] = target: T2, Human GPR120 short form (Homo sapiens, UniProt Q5NUL3); test: Human GPR120 calcium flux assay, Procedure Calcium A (2500 cells/well)
T2 construct: expressed in transfected cells
T2 sequence (Q5NUL3 1-361): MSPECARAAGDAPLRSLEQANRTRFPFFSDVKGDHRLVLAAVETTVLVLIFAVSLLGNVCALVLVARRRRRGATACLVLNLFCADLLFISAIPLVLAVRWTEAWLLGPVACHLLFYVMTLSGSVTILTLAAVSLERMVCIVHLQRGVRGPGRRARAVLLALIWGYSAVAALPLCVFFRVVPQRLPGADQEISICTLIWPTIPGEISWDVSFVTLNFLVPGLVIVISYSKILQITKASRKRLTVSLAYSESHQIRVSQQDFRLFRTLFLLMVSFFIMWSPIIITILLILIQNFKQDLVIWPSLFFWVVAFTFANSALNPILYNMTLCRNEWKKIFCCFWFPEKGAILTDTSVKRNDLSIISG
Method in brief: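 HEK293 cells stably expressing human GPR120 short isoform (NM_001195755.1), 2500 cells/well, serum-starved 1 h at 37 °C and loaded with Fluo-4 NW plus probenecid. FLIPR fluorescence read for 300 s after compound addition; response = Fmax−Fmin. EC50 from four-parameter concentration–response fit.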

[3] = target: T2, Human GPR120 short form; test: Human GPR120 calcium flux assay, Procedure Calcium B (4200 cells/well)
Method in brief: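 HEK293 cells stably expressing human GPR120 (NM_001195755.1), 4200 cells/well, starved 1 h and loaded with Fluo-4 NW plus probenecid. Ligand-evoked calcium flux read on FLIPR for 300 s after a 10 s baseline. RFU = Fmax−Fmin; EC50 from four-parameter concentration-response fit.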

| SMILES | EC50 [1] | EC50 [2] | EC50 [3] |
| --- | --- | --- | --- |
| Cc1ccc(C2=C(COc3c(F)cc(CCC(=O)O)cc3F)CCCC2)cc1F [Compound 493, 3-[3,5-difluoro-4-[[2-(3-fluoro-4-methyl-phenyl)cyclohexen-1-yl]methoxy]phenyl]Propanoic Acid] | > 5000 nM | 123 nM | 37 nM |
| Cc1ccc(C2=C(COc3ccc(CCC(=O)O)c(F)c3F)CCC2)cc1N [Compound 93, 3-(4-((2-(3-amino-4-methylphenyl)cyclopent-1-en-1-yl)methoxy)-2,3-difluorophenyl)Propanoic Acid] | > 5000 nM | 427 nM | 643 nM |
| O=C(O)CCc1c(F)c(F)c(OCC2=C(c3ccc(Cl)cc3)CCCC2)c(F)c1F [Compound 479, 3-[4-[[2-(4-chlorophenyl)cyclohexen-1-yl]methoxy]-2,3,5,6-tetrafluoro-phenyl]Propanoic Acid] | > 5000 nM | 958 nM | 73 nM |
| Cc1ccccc1C1=C(COc2ccc(CCC(=O)O)c(C)c2C)CCC1 [Compound 132, 3-[2,3-dimethyl-4-[[2-(o-tolyl)cyclopenten-1-yl]methoxy]phenyl]Propanoic Acid] | > 5000 nM | 1090 nM | 409 nM |
| Cc1ccc(C2=C(COc3ccc(CCC(=O)O)c(C)c3C)CCC2)c(C)c1 [Compound 82] | > 5000 nM | 372 nM | 242 nM |
| Cc1ccc(C2=C(COc3c(F)cc(CCC(=O)O)cc3F)CCC2)cc1C [Compound 84, 3-(4-((2-(3,4-dimethylphenyl)cyclopent-1-en-1-yl)methoxy)-3,5-difluorophenyl)Propanoic Acid] | > 5000 nM | 1740 nM | 290 nM |
| O=C(O)CCc1ccc(OCC2=C(c3ccc(Cl)cc3)CCC2)cc1 [Compound 153, 3-[4-[[2-(4-chlorophenyl)cyclopenten-1-yl]methoxy]phenyl]Propanoic Acid] | 2950 nM | 319 nM | 23 nM |
| Cc1c(CCC(=O)O)ccc(OCC2=C(c3ccccc3F)CCC2)c1C [Compound 124, 3-[4-[[2-(2-fluorophenyl)cyclopenten-1-yl]methoxy]-2,3-dimethyl-phenyl]Propanoic Acid] | > 5000 nM | 308 nM | 67 nM |
| Cc1c(CCC(=O)O)ccc(OCC2=C(c3ccc(Cl)nc3)CCC2)c1C [Compound 158, 3-(4-((2-(6-chloropyridin-3-yl)cyclopent-1-en-1-yl)methoxy)-2,3-dimethylphenyl)Propanoic Acid] | > 5000 nM | 234 nM | 133 nM |
| Cc1c(CCC(=O)O)ccc(OCC2=C(c3ccc(Cl)cc3)CCC(F)(F)C2)c1C [Compound 468, 3-[4-[[2-(4-chlorophenyl)-5,5-difluoro-cyclohexen-1-yl]methoxy]-2,3-dimethyl-phenyl]Propanoic Acid] | > 5000 nM | 261 nM | 56 nM and 54 nM |
| Cc1c(CCC(=O)O)ccc(OCC2=C(c3ccc(N(C)C)cc3)CCCC2)c1C [Compound 512, 3-[4-[[2-(4-dimethylaminophenyl)cyclohexen-1-yl]methoxy]-2,3-dimethyl-phenyl]Propanoic Acid] | > 5000 nM | 808 nM | 140 nM |
| Cc1ccc(C2=C(COc3ccc(CCC(=O)O)c(C)c3C)CCC2)cc1F [Compound 80, 3-(4-((2-(3-fluoro-4-methylphenyl)cyclopent-1-en-1-yl)methoxy)-2,3-dimethylphenyl)Propanoic Acid] | > 5000 nM | 81 nM | 19 nM |
| Cc1c(CCC(=O)O)ccc(OCC2=C(c3ccccc3)CCC2)c1C [Compound 23, 3-(2,3-dimethyl-4-((2-phenylcyclopent-1-en-1-yl)methoxy)phenyl)Propanoic Acid] | > 5000 nM | 301 nM | 114 nM |
| Cc1c(CCC(=O)O)ccc(OCC2=C(c3ccc(Cl)c(Cl)c3)CCC2)c1C [Compound 66, 3-[4-[[2-(3,4-dichlorophenyl)cyclopenten-1-yl]methoxy]-2,3-dimethyl-phenyl]Propanoic Acid] | > 5000 nM | 658 nM | 205 nM |
| Cc1ccc(C2=C(COc3ccc(CCC(=O)O)c(F)c3F)CCC2)cc1 [Compound 94, 3-(2,3-difluoro-4-((2-(p-tolyl)cyclopent-1-en-1-yl)methoxy)phenyl)Propanoic Acid] | > 5000 nM | 400 nM | 23 nM |
| Cc1c(CCC(=O)O)ccc(OCC2=C(c3cccc(Cl)c3)CCCC2)c1C [Compound 509, 3-[4-[[2-(3-chlorophenyl)cyclohexen-1-yl]methoxy]-2,3-dimethyl-phenyl]Propanoic Acid] | > 10000 nM | 963 nM | 414 nM |
| Cc1c(CCC(=O)O)ccc(OCC2=C(c3ccccc3Cl)CCC2)c1C [Compound 76, 3-[4-[[2-(2-chlorophenyl)cyclopenten-1-yl]methoxy]-2,3-dimethyl-phenyl]Propanoic Acid] | > 10000 nM | 542 nM | 136 nM |
| CCc1ccc(C2=C(COc3c(F)cc(CCC(=O)O)cc3F)CCC2)cc1 [Compound 16, 3-(4-((2-(4-ethylphenyl)cyclopent-1-en-1-yl)methoxy)-3,5-difluorophenyl)Propanoic Acid] | > 5000 nM | 198 nM | 49 nM |
| O=C(O)CCc1ccc(OCC2=C(c3ccc(Cl)cc3)CCC(F)(F)C2)c(F)c1F [Compound 503, 3-[4-[[2-(4-chlorophenyl)-5,5-difluoro-cyclohexen-1-yl]methoxy]-2,3-difluoro-phenyl]Propanoic Acid] | > 5000 nM | 493 nM | 97 nM |
| Cc1ccc(C2=C(COc3c(F)cc(CCC(=O)O)cc3F)CCC2)cc1 [Compound 95, 3-(3,5-difluoro-4-((2-(p-tolyl)cyclopent-1-en-1-yl)methoxy)phenyl)Propanoic Acid] | > 5000 nM | 378 nM | 32 nM |
| Cc1c(CCC(=O)O)ccc(OCC2=C(c3ccccn3)CCC2)c1C [Compound 147, 3-[2,3-dimethyl-4-[[2-(2-pyridyl)cyclopenten-1-yl]methoxy]phenyl]Propanoic Acid] | > 5000 nM | 1010 nM | 336 nM |
| Cc1ccc(C2=C(COc3c(F)cc(CCC(=O)O)cc3F)CCC2)cc1[N+](=O)[O-] [Compound 109, 3-(3,5-difluoro-4-((2-(4-methyl-3-nitrophenyl)cyclopent-1-en-1-yl)methoxy)phenyl)Propanoic Acid] | > 5000 nM | 959 nM | 1290 nM |
| Cc1c(CCC(=O)O)ccc(OCC2=C(c3cccs3)CCC2)c1C [Compound 77, 3-[2,3-dimethyl-4-[[2-(2-thienyl)cyclopenten-1-yl]methoxy]phenyl]Propanoic Acid] | > 10000 nM | 508 nM | 122 nM |
| O=C(O)CCc1cc(F)c(OCC2=C(c3ccc(Cl)cc3)CCC2)c(F)c1 [Compound 60, 3-[4-[[2-(4-chlorophenyl)cyclopenten-1-yl]methoxy]-3,5-difluoro-phenyl]Propanoic Acid] | > 5000 nM | 550 nM | 103 nM |
| O=C(O)CCc1cc(F)c(OCC2=C(c3ccc(Cl)cc3)CCCC2)c(F)c1 [Compound 510, 3-[4-[[2-(4-chlorophenyl)cyclohexen-1-yl]methoxy]-3,5-difluoro-phenyl]Propanoic Acid] | > 10000 nM | 561 nM | 33 nM |
| Cc1ccc(C2=C(COc3ccc(CCC(=O)O)c(F)c3F)CCC2)c(C)c1 [Compound 72, 3-(4-((2-(2,4-dimethylphenyl)cyclopent-1-en-1-yl)methoxy)-2,3-difluorophenyl)Propanoic Acid] | > 5000 nM | 658 nM | 245 nM |
| Cc1ccc(C2=C(COc3ccc(CCC(=O)O)c(C)c3C)CCC2)cn1 [Compound 85, 3-(2,3-dimethyl-4-((2-(6-methylpyridin-3-yl)cyclopent-1-en-1-yl)methoxy)phenyl)Propanoic Acid] | > 5000 nM | 605 nM | 234 nM |
| Cc1c(CCC(=O)O)ccc(OCC2=C(c3ccccc3)CCCC2)c1C [Compound 472, 3-[2,3-dimethyl-4-[(2-phenylcyclohexen-1-yl)methoxy]phenyl]Propanoic Acid] | > 5000 nM | 406 nM | 32 nM |
| Cc1ccc(C2=C(COc3ccc(CCC(=O)O)c(C)c3C)CCC2)cc1N [Compound 134, 3-(4-((2-(3-amino-4-methylphenyl)cyclopent-1-en-1-yl)methoxy)-2,3-dimethylphenyl)Propanoic Acid] | > 5000 nM | 2000 nM | 1430 nM |
| COc1cccc(C2=C(COc3ccc(CCC(=O)O)c(C)c3C)CCC2)c1 [Compound 141, 3-[4-[[2-(3-methoxyphenyl)cyclopenten-1-yl]methoxy]-2,3-dimethyl-phenyl]Propanoic Acid] | > 5000 nM | 1060 nM | 256 nM |
